Measurements published in patent US20260216342A1, “COMPOUNDS FOR NUCLEIC ACID CLEAVAGE” (priority 2023, published 2026).

Assays:
SARS-CoV-2 [1] = format: cell-based; details: Vero CCL-81, MOI 0.05, 24 h
SARS-CoV-2 [2] = assay: Virucidal activity on cell free virions; details: 6 μM, 1 h at 37° C., 1000 PFU, plaque assay
SARS-CoV-2 [3] = format: in vivo, K18-hACE2 transgenic mice; details: 10 mg/kg intranasally 1 hour pre-infection and 3 hours post-infection, day 5, plaque assay
[4] = tested on: RNA extracted from SARS-CoV-2; assay: Gel electrophoresis of SARS-CoV-2 RNA after degrader incubation; format: biochemical; details: 100 μM, 2 h at 37° C.; FIG. 5f
[5] = tested on: RNA 69-er corresponding to the coronaviral pseudoknot; format: biochemical; details: 1 mM, 3 h incubation at 37° C.
SARS-CoV-2 [6] = assay: Viral plaque-forming units by plaque assay; format: cell-based; details: supernatants of cultures treated with 6 mM for 24 h, vs vehicle control
G4-forming RNA oligomer = assay: Degradation of G4-forming RNA oligomer by non-covalent PDS-based degraders; format: biochemical; details: 200 μM, CuSO4/THPTA/NaAsc, 37° C. for 4 h, LC-MS; FIG. 15
Experimental: […]. The mixture was heated at 95° C. for 5 minutes, then kept on ice for 30 minutes. CuSO4 (final concentration 200 μM), THPTA (700 μM) and NaAsc (50 mM) were then added, alongside with CBX-PDS, PDS-deg6 or PDS-Amlmi (200 μM). The reaction mixture was incubated at 37° C. for 4 h, quenched with EDTA (final concentration 12 mM) and then kept at 4° C. The reaction mixtures were analysed by LC-MS.

E. coli ribosome = assay: In vitro degradation of E. coli ribosome (agarose gel); format: biochemical; details: 15 mM to 0.47 mM, 18 hours at 37° C.
Experimental: The degradation activity was measured in an in vitro assay, targeting the E. coli ribosome. 200 μM […] were incubated with degrader in different concentration, ranging from 15 mM to 0.47 mM, for 18 hours at 37° C. Evaluation was made by agarose gel analysis.

CCOC(=O)c1ccccc1NC(=O)N1CCCN(Cc2csc(C)n2)CC1 [MTDB]
antiviral effect (coronaviral RNA in cells) (SARS-CoV-2 [1]; added before or after infection): did not exhibit an antiviral effect
50% inhibitory concentration (IC50) (SARS-CoV-2 [1]; drug added 1 h before or 1 h after infection): did not inhibit viral replication and thus IC50 values could not be determined
virucidal effect on cell free virus (SARS-CoV-2 [2]): no virucidal effect was observed
lung viral load (SARS-CoV-2 [3]): No differences in lung viral load
degradation of full-length coronaviral RNA on agarose gel [4]: the two control molecules do not
degradation of RNA pseudoknot [5]: no degradation
number of viral plaques (SARS-CoV-2 [6]): only showed decreased number of viral plaques when added before infection

CN(C)Cc1nccn1CCOCCOCCOCCOCCOCCn1cc(COc2cc(C(=O)Nc3cc(OCCN)c4ccccc4n3)nc(C(=O)Nc3cc(OCCN)c4ccccc4n3)c2)nn1 [PDS-Amimi]
degrader potency on G4-forming RNA oligomer (G4-forming RNA oligomer): more potent degrader than PDS-deg6

O=C(N[C@H](CO)[C@H](O)c1ccc([N+](=O)[O-])cc1)C(Cl)Cl [chloramphenicol, Chloramphenicol]
ribosome degradation (E. coli ribosome): no degradation

chloramphenicol-2PEG-imidazole degrader [18b]
ribosome degradation (E. coli ribosome): ribosome degradation could be observed at a concentration of 15 mM

chloramphenicol-6PEG-imidazole degrader [18a]
ribosome degradation (E. coli ribosome): no degradation visible

chloramphenicol-ethyl-imidazole degrader [18c]
ribosome degradation (E. coli ribosome): no degradation visible
